For test [1], the target named is T1, bacterial (E.coli) tRNA guanine transglycosylase (TGT) (Escherichia coli, UniProt P0A847).
T1 construct: His6 (C); made in house; host or cells: E. coli BL21
The class given is biochemical. Particulars: TGT present; 4% denaturing PAGE (FIG. 3A, FIG. 7).
Description: General labeling reaction procedure for fluorescence spectra and gel analysis. A 25 μL reaction was setup in a small eppendorf tube containing 100 nM RNA transcript, 50 μM PreQ1 analog, and 1μM TGT in TGT reaction buffer. 1 unit of RNaseln (Promega, Madison, Wis.) was added to each reaction to prevent degradation of the transcript. The reaction was allowed to proceed for 4 hours, after which the sample was cooled to 4° C. and either used directly or stored at −80° C. until further analyzed.
Gel Analysis of TGT reactions with PreQ1 analogs. […] After the reactions were complete, the RNA was precipitated by addition of 10% volume of 3M sodium acetate and 2.5 volumes 95% ethanol. The samples were then precipitated at −80° C. for 2 hours after which they were centrifuged at 16,100 g for 30 minutes at 4° C. The ethanol was carefully pipetted away and the RNA pellet was allowed to air dry for 10 minutes on the bench. The pellet was resuspended in 10 μL of 1X RNA loading dye (NEB, Ipswitch, Mass.), heated to 95° C. for 2 minutes, placed on ice for 20 minutes, and subsequently loaded into a freshly poured denaturing 4% polyacrylamide gel (4% polyacrylamide in 1X TBE buffer with 8% urea) and run at 120 V for approximately 2 hours until the xylene cyanol blue dye had reached the bottom of the gel. […]

Test [2] concerns mCherry-TAG RNA endogenously expressed in CHO cells. Description: Fixed cell labeling of endogenously expressed mCherry-TAG transcript. The class given is cell-based, Chinese hamster. Particulars: 50 μM PreQ1-Cy7, with TGT and mCherry-TAG plasmid vs controls without (FIG. 4). How it is done:
Fixed Cell Labeling of Endogenously Expressed mCherry-ECY-A1 Transcript. Chinese Hamster Ovary (CHO) cells (CRL-9606, ATCC, Manassas, Va.) were cultured in Ham's F-12K media (Life Technologies, Carlsbad, Calif.) and kept under 20 passages from the ATCC standard line. CHO cells were plated at an initial density of 10,000 cells per well in a Nunc Lab-Tek 8 well chamber slide (Thermo Scientific, Waltham, Mass.). Cells were allowed to adhere overnight and washed with Opti-MEM media (Life Technologies, Carlsbad, Calif.) and subsequently transfected with […] of mCherry-TAG plasmid per well with 1.5 μL of Lipofectamine® 2000 (Life Technologies, Carlsbad, Calif.) in Opti-MEM as per manufacture's protocol. Control wells lacking transfection were treated and washed with Opti-MEM in the absence of DNA and lipofectamine®. After overnight transfection, the cells were washed twice with PBS (200 μL each) and fixed with 100 μL of a 3.7% paraformaldehyde in PBS solution for 10 minutes at room temperature. Cells were then permeabilized by treatment with 100 μL of 0.1% Triton X-100 in PBS for 20 minutes at room temperature and washed 2×200 μL with fresh PBS. Cells were then treated for four hours at 37° C. with 100 μL of TGT reaction buffer containing 50 μM PreQ1-Cy7 either with or without 10 μM TGT enzyme added. […] Images were subsequently analyzed and processed using ImageJ (NIH, rsbweb.nih.gov).

The target of test [3] is T2, streptavidin M-280 DYNABEADS (Streptomyces avidinii, UniProt P22629).
T2 construct: purchased Life Technologies M280
T2 sequence (P22629 25-183): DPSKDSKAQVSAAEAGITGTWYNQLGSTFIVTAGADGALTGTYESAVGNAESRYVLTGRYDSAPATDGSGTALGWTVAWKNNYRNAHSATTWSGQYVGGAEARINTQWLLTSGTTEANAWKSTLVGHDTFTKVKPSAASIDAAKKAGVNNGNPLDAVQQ
Put plainly: DYNABEADS streptavidin pull-down of PreQ1-Biotin modified transcripts. The class given is binding. To be noted: mCherry-TAG vs mCherry-TAGΔC after TGT labeling (FIGS. 3C and 10). The protocol: DYNABEADS® Streptavidin pull-down of PreQ1-Biotin modified transcripts. mCherry-TAG and mCherry-TAGΔC transcripts was incubated in a mixture of 1 μM RNA, 100 μM preQ1-Biotin, and 1 μM TGT (omitted in control samples) in TGT reaction buffer at 37° C. for 4 hours. 1 unit of RNAseIn (Promega, Madison, Wis.) was added to the reaction to prevent transcript degradation. Samples were drop dialyzed through 0.02 μm MF-Millipore membrane filter (Millipore, Billerica, Mass.) using 25 mL Milli-Q water and subsequently ethanol precipitated by addition of 10% volume of 3M sodium acetate and 2.5 volumes 95% ethanol and incubation at […] overnight. After centrifugation at 4° C. (16,100 g, 30 min), the resulting RNA pellet was resuspended in water, and the concentration of RNA was quantified.
Streptavidin M280 DYNABEADS® (Life Technologies, Carlsbad, Calif.) were washed according to manufacturer's instructions for RNA applications using binding and washing (B&W) buffer. Beads were blocked in B&W buffer with yeast tRNA (0.1 mg/100 uL of beads). Following the blocking step, beads were washed twice with B&W buffer. Pull down was then performed by incubation of 1 μg of prepared RNA with 10 uL of washed beads in B&W buffer at room temperature for 30 minutes with constant rotation. The beads were then washed three times with B&W buffer. […] Samples were then analyzed by 4% denaturing PAGE.

For test [4], the target named is T1, bacterial (E.coli) tRNA guanine transglycosylase (TGT). Description: TGT-catalyzed incorporation of PreQ1 analogs into RNA oligonucleotide hairpins (LC / HRMS). The class given is biochemical. The protocol: General TGT reaction with RNA oligonucleotide hairpins TGT reaction conditions were adapted from a previously reported literature procedure.^1 An eppendorf tube containing 10 μM RNA oligonucleotide, 100 μM PreQ1 analog, and 10 μM TGT enzyme were prepared in a final volume of 50 μL of TGT reaction buffer. The reactions were incubated at 37° C. for a minimum of 2 hours. The reactions were halted by chilling samples to 4° C. or freezing at −80° C. until purified or analyzed.
Liquid chromatography and mass spectroscopy analysis of preQ1 modified RNA hairpins. Samples were first prepared according to the general procedure. Samples were allowed to react for 6 hours and frozen at −80° C. until analyzed (PreQ1-Biotin required 24 hours for completion). Samples were diluted 1:2 with milli-Q water and injected onto a clarity Oligo-MS column (Phenomenex, Torrance, Calif.) and analyzed by HPLC according to the following gradient: (A=Milli-Q water containing 20% hexafluoroisopropanol (HFIP) and 0.1% TEA, B=methanol), Initial conditions 95% A, 5% B, hold 2 min then a linear gradient starting at 2 min and ending at 10 min with 45% A, 55% B. Samples were monitored at 260 nm as well as either 505 nm or 700 nm as appropriate when fluorophore PreQ1 analogs were employed. HRMS samples were collected in negative ion mode and analyzed in a similar manner by combining the mass spectrum traces across the peak of interest. Raw mass spectrum were deconvoluted using MagTran software package v.

For a further test, the target named is T3, streptavidin (Streptomyces avidinii, UniProt P22629).
T3 construct: purchased Life Technologies
T3 sequence (P22629 25-183): as above
Description: Streptavidin gel shift of RNA hairpins modified with PreQ1-Biotin. The class given is binding. Particulars: ECY-A1 vs ECY-A1ΔC, with and without TGT; 15% denaturing PAGE (FIG. 2C). The protocol:
Streptavidin gel shift of RNA hairpins. ECY-A1 RNA and ECY-A1ΔC was incubated in a mixture of 10 μM RNA, 100 μM preQ1-Biotin, and 1 μM TGT (omitted in control samples) in TGT reaction buffer at 37° C. for 24 hours. After the reactions were complete, the RNA was precipitated by addition of 10% volume of 3M sodium acetate and 2.5 volumes 95% ethanol and incubation at −20° C. overnight. After centrifugation at 4° C. (16,100 g, 30 min), the resulting RNA pellet was resuspended in water, and the concentration of RNA was quantified. The prepared RNA was then incubated in the presence of streptavidin (Life Technologies, Carlsbad, Calif.) at 37° C. for 1 hour in a mixture containing the following: 10 mM Tris (pH 8.1), 2.5 μM RNA, and 50 μM streptavidin. 1X RNA loading dye (NEB, Ipswitch, Mass.) was added to the sample (without heat denaturation) and samples were analyzed by 15% denaturing PAGE.
A general note: Mobility shift assays separate free from complexed probe on a gel.

For test [5], the target named is T1, bacterial (E.coli) tRNA guanine transglycosylase (TGT). Put plainly: Fluorescence emission spectra of PreQ1-TO probe turn-on with ECY-A1 hairpin. To be noted: RNA hairpin ECY-A1; normalized to PreQ1-TO in the absence of RNA and TGT (FIG. 2B). The class given is biochemical. How it is done:
Fluorescence emission spectra of PreQ1-TO probe turn-on with ECY-A1 hairpin. Samples of ECY-A1, ECY-A1ΔC, and ECY-X1 were first prepared in a similar fashion to the general protocol except only 20 μM PreQ1-TO was employed to avoid non-specific binding to the hairpins. Samples were allowed to react for 2 hours, verified to be at completion by HPLC, and diluted 30-fold into TGT reaction buffer. Spectra were then collected on a Fluoromax-P spectrophotometer by excitation at 501 nm and scanning emission from 510 to 600 nm with excitation and emission slit width at 5 nm and an integration time of 1 s. All spectra were background subtracted from TGT reaction buffer and Normalized against the fluorescence intensity values of a sample containing an analogous concentration of PreQ1-TO (0.667 μM) in TGT reaction buffer.

For test [6] the target is unchanged. Description: Fluorescence emission spectra of PreQ1-TO probe turn-on with mCherry-TAG RNA. The class given is biochemical. The protocol:
Fluorescence emission spectra of PreQ1-TO probe turn-on with mCherry-TAG RNA. Fluorescence emission spectra were collected in a similar fashion to that described previously for the short RNA hairpins. 25 μL reactions were setup with 10 μM TGT enzyme, 20 μM PreQ1-TO, and 100 nM transcript RNA and incubated at 37° C. for 2 hours. Samples were then diluted 30-fold and measured under the same conditions and parameters as that of the short hairpins.

SMILES strings stand for the structures.

The record followed here is US11267842B2, “Enzymatic modification of nucleic acids” (The Regents of the University of California, priority 2015, dated 2022).

T1 sequence (P0A847 whole entry, added parts left off): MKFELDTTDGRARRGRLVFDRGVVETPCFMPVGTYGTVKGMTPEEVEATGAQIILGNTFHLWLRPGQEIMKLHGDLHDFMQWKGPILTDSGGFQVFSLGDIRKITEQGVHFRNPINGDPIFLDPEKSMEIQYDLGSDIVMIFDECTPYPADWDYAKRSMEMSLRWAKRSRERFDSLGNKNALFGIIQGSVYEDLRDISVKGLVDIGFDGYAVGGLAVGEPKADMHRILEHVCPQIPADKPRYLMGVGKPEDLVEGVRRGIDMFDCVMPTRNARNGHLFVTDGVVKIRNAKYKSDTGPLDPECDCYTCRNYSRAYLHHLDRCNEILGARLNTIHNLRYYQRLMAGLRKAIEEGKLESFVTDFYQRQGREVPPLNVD

On to `CN1/C(=C/C=C2C=C(/C=C/C3=[N+](CCCCCC(=O)NCCOCCOCCOCCNCc4c[nH]c5nc(N)[nH]c(=O)c45)c4ccccc4C3(C)C)CCC/2)C(C)(C)c2ccccc21.O=C[O-]` [PreQ1-Cy7], for which, in test [1], the “fluorescent labeling of mCherry-TAG transcript” value is recorded as “labeling of the transcript took place”. For the same molecule, in test [2], the “staining of fixed, permeabilized CHO cells” value was “significantly greater staining of fixed cells”.

Regarding `Nc1nc2[nH]cc(CNCCOCCOCCOCCNC(=O)CCCC[C@@H]3SC[C@@H]4NC(=O)N[C@@H]43)c2c(=O)[nH]1` [PreQ1-Biotin], the “RNA recovered in streptavidin pull-down” value in test [3] was “single RNA band corresponding to transcript only when mCherry transcript contained the ECY-A 1 hairpin”. Further, the “reaction time required for completion of TGT labeling of ECY-A1” value in test [4] (37° C., other analogs 6 hour incubation) is 24 h. The “streptavidin gel shift of ECY-A1 modified by TGT” value at streptavidin is recorded as “biotin remains functional as an affinity tag”.

For `CN1/C(=C/c2cc[n+](CCCCCC(=O)NCCOCCOCCOCCNCc3c[nH]c4nc(N)[nH]c(=O)c34)c3ccccc23)Sc2ccccc21.O=C[O-]` [PreQ1-TO], the “increase in TO fluorescence intensity upon covalent incorporation” value in test [5] is approximately 40 fold. The “fluorescence intensity with in vitro transcribed mCherry-TAG RNA” value in test [6] (TGT present vs absent (FIG. 3B)) is “significant increase in fluorescence intensity”. For the same molecule, the “fluorescence turn-on with mCherry-TAGΔC transcript” value in test [6] (in the presence of enzyme) is “negligible fluorescence turn-on”. In addition, the “RNA substrate selectivity of incorporation” value in test [4] (ECY-A1 compared with ECY-A1ΔC and ECY-X1 (FIG. 20B)) is listed as “selectively incorporated into ECY-A1”. The “incorporation of PreQ1-TO into alternative RNA hairpins” value in test [4] (RNA hairpins ECY-A1ΔC and ECY-X1, with TGT, by LC/MS) is reported as “unable to detect incorporation”.
